From patent publication US20220411380A1, “ACID ADDITION SALT OF RORy REGULATOR” (JIANGSU HENGRUI MEDICINE CO., LTD., priority 2019, published 2022)

How the values were obtained:
RORγ LBD-GST tagged = molecular target: T1, RORγ LBD-GST tagged (Homo sapiens, UniProt P51449); assay: LanthaScreen TR-FRET RORγ-LBD and co-activation peptide biochemical assay; conditions: Fluorescein-D22 coactivator, read-out: RORγ coactivation assay (IC50)
T1 construct: RORγ LBD-GST tagged (Cat No. RORC-114H, Creative Biomart); purchased Creative Biomart RORC-114H
T1 sequence (P51449 269-508 limits assumed): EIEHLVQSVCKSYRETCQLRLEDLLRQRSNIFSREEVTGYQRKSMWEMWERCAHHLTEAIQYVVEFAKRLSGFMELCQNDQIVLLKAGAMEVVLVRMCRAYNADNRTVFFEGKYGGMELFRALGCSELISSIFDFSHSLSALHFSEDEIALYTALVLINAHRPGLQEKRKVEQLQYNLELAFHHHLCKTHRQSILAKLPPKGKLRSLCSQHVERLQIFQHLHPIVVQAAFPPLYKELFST
Method: Test Example 1. Biochemical Assay of LanthaScreen TR-FRET RORγ-LBD and Co-Activation Peptide
Complete TR-FRET Coregulator Buffer D was prepared by diluting 1 M DTT with TR-FRET Coregulator Buffer D to a final concentration of 5 mM DTT. The compounds were diluted in Complete TR-FRET Coregulator Buffer D. The solutions were serially 7-fold diluted from an initial concentration of 3 μM to the 7th concentration. 10 μL of the dilutions was added to each well of the 384-well plate. For negative and positive controls, 10 μL of Complete TR-FRET Coregulator Buffer D was added.
A RORγ LBD solution was prepared using Complete TR-FRET Coregulator Buffer D. The final concentration of the RORγ LBD solution in each reaction was 25 ng. Other than the negative wells receiving 5 μL of Complete TR-FRET Coregulator Buffer D, 5 μL of the RORγ LBD solution was added to the remaining wells of the 384-well assay plate.
Complete TR-FRET Coregulator Buffer D was used to prepare a solution containing 0.6 μM Fluorescein-D22 and 8 nM Tbanti-GST antibody, and 5 μL of the prepared solution was added to all wells of the 384-well assay plate. […]
The plate was measured on a Tecan Infinite M1000 plate reader at wavelengths of 520 nm and 495 nm. IC50 values were calculated using GraphPad Prism by plotting log compound concentration versus percentage inhibition.

[1] = tested on: IL-17A production in human peripheral blood mononuclear cells; assay: Inhibition of cytokine IL-17A production in human peripheral blood mononuclear cells; format: cell-based; conditions: 72 h; human PBMC, cytostim, 3 days, IL-17A ELISA
Method: Test Example 2. Assay for Inhibiting Cytokine IL-17A Production in Human Peripheral Blood Mononuclear Cells
Frozen human peripheral blood mononuclear cells (PBMCs) were rapidly thawed in a pre-warmed lymphocyte medium and centrifuged at 1000 rpm for 10 min. The cell culture supernatant was discarded, and the cells were gently suspended in the TexMACS medium and counted. T cell activating reagent cytostim (10 μL/mL) was added to the cell suspension in certain proportions, and then the cells were seeded in a 96-well cell culture plate at a density of 1×10^5 PBMCs/well. Test compounds were diluted in gradient using TexMACS medium and added to the treatment wells in 2-3 replicates. Negative control wells containing cells only without cytostim were prepared to obtain background readings. The cell culture plate was incubated in a 5% carbon dioxide/37° C. incubator for 3 days. Cell culture supernatant was collected 3 days after treatment and centrifuged to remove the suspended matter. IL-17A in the supernatant was then quantified using an IL-17A enzyme-linked immunosorbent assay kit. […]
In the calculation equation, inhibition % is inhibition rate; OD(NC) is the reading of cells in negative control groups with no cytostim and no compound; OD(PC) is the reading of cells in positive control groups with cytostim but no compound; OD(compound) is the reading of cells with cytostim and compound.

[2] = Influencing factor study of amorphous form of compound of formula II; format: physicochemical
Method: A sample of the amorphous form of the compound of formula II (Example 4) was let stand open to examine the stability of the sample in conditions of heating (40° C. and 60° C.), illumination (4500 Lux) and high humidity (RH 75% and RH 90%) in a period of 30 days.

[3] = Long-term/accelerated stability study of amorphous form of compound of formula II; format: physicochemical
Method: The amorphous form of the compound of formula II (Example 4) was subjected to a long-term (25° C., 60% RH)/accelerated (40° C., 75% RH) stability study with a period of 3 months.

[4] = as above; format: physicochemical; remark: listed apart in the source

Compound NC(=O)C[C@H](c1ccc(S(=O)(=O)CC2CC2)cc1)c1nc2cc(-c3ccccc3OC(F)F)c(Cl)cc2[nH]1 (single isomer, unassigned) [compound of formula II] has an IC50 (RORγ LBD-GST tagged) of 0.013 µM and an IC50 [1] of 0.01 µM.
For NC(=O)C[C@H](c1ccc(S(=O)(=O)CC2CC2)cc1)c1nc2cc(-c3ccccc3OC(F)F)c(Cl)cc2[nH]1 [amorphous form of compound of formula II], the “Amorphous form Purity (%)” value ([2]; 40° C., 5 days) was 99.93%, the Color and appearance ([2]; 40° C., 5 days) was “White solid” and the “Amorphous form Purity (%)” value ([2]; 40° C., 10 days) was 99.90%. The Chiral purity ([2]; 40° C., 10 days) was 99.4, the Color and appearance ([2]; 40° C., 10 days) was “White solid” and the “Amorphous form Purity (%)” value ([2]; 40° C., 30 days) was 99.92%. The Chiral purity ([2]; 40° C., 30 days) was 99.5, the Color and appearance ([2]; 40° C., 30 days) was “White solid” and the “Amorphous form Purity (%)” value ([2]; 60° C., 5 days) was 99.95%. For the same compound, the Color and appearance ([2]; 60° C., 5 days) was “White solid”, the “Amorphous form Purity (%)” value ([2]; 60° C., 10 days) was 99.95% and the Chiral purity ([2]; 60° C., 10 days) was 99.4. For the same compound, the Color and appearance ([2]; 60° C., 10 days) was “White solid”, the “Amorphous form Purity (%)” value ([2]; 60° C., 30 days) was 99.95% and the Chiral purity ([2]; 60° C., 30 days) was 99.4. For the same compound, the Color and appearance ([2]; 60° C., 30 days) was “White solid”, the “Amorphous form Purity (%)” value ([2]; 4500 Lux, 5 days) was 99.91% and the Color and appearance ([2]; 4500 Lux, 5 days) was “White solid”. The “Amorphous form Purity (%)” value ([2]; 4500 Lux, 10 days) was 99.91%, the Chiral purity ([2]; 4500 Lux, 10 days) was 99.3 and the Color and appearance ([2]; 4500 Lux, 10 days) was “White solid”. For the same compound, the “Amorphous form Purity (%)” value ([2]; 4500 Lux, 30 days) was 99.93%, the Chiral purity ([2]; 4500 Lux, 30 days) was 99.3 and the Color and appearance ([2]; 4500 Lux, 30 days) was “White solid”. For the same compound, the “Stability (conclusion of influencing factor study)” value ([2]; 30 days, illumination, 40° C., 60° C., high humidity of 75% and 90%) was “good chemical stability”, the “Amorphous form Purity (%)” value ([2]; Initial, 0 days) was 99.91% and the Chiral purity ([2]; Initial, 0 days) was 99.4. For the same compound, the Color and appearance ([2]; Initial, 0 days) was “White solid”, the “Amorphous form Purity (%)” value ([2]; RH 75%, 5 days) was 99.92% and the Color and appearance ([2]; RH 75%, 5 days) was “White solid”. The “Weight gain (%)” value ([2]; RH 75%, 5 days) was 10.42%, the “Amorphous form Purity (%)” value ([2]; RH 75%, 10 days) was 99.90% and the Chiral purity ([2]; RH 75%, 10 days) was 99.3. The Color and appearance ([2]; RH 75%, 10 days) was “White solid”, the “Weight gain (%)” value ([2]; RH 75%, 10 days) was 13.2% and the “Amorphous form Purity (%)” value ([2]; RH 75%, 30 days) was 99.90%. For the same compound, the Chiral purity ([2]; RH 75%, 30 days) was 99.4, the Color and appearance ([2]; RH 75%, 30 days) was “White solid” and the “Weight gain (%)” value ([2]; RH 75%, 30 days) was 23.24%. For the same compound, the “Amorphous form Purity (%)” value ([2]; RH 90%, 5 days) was 99.91%, the Color and appearance ([2]; RH 90%, 5 days) was “White solid” and the “Weight gain (%)” value ([2]; RH 90%, 5 days) was 21.67%. For the same compound, the “Amorphous form Purity (%)” value ([2]; RH 90%, 10 days) was 99.92%, the Chiral purity ([2]; RH 90%, 10 days) was 99.4 and the Color and appearance ([2]; RH 90%, 10 days) was “White solid”. The “Weight gain (%)” value ([2]; RH 90%, 10 days) was 26.49%, the “Amorphous form Purity (%)” value ([2]; RH 90%, 30 days) was 99.89% and the Chiral purity ([2]; RH 90%, 30 days) was 99.4. For the same compound, the Color and appearance ([2]; RH 90%, 30 days) was “White solid”, the “Weight gain (%)” value ([2]; RH 90%, 30 days) was 37.24% and the “Stability (conclusion of long-term/accelerated study)” value ([3]; 25° C., 60% RH and 40° C., 75% RH, 3 months) was “good chemical stability”. For the same compound, the “Chiral purity Initial” value ([3]; 25° C., 60% RH, Initial) was 99.2, the “Purity Initial” value ([3]; 25° C., 60% RH, Initial) was 99.87 and the “Purity (%) Month 1” value ([3]; 25° C., 60% RH) was 99.86%. The “Purity (%) Month 2” value ([3]; 25° C., 60% RH, Month 2) was 99.86%, the “Chiral purity Initial” value ([3]; 40° C., 75% RH, Initial) was 99.2 and the “Purity (%) Month 1” value ([3]; 40° C., 75% RH) was 99.87%. For the same compound, the “Chiral purity (%) Month 3” value ([3]; 40° C., 75% RH, Month 3) was 99.1%, the “Purity (%) Month 3” value ([3]; 40° C., 75% RH, Month 3) was 99.88% and the “Chiral purity Initial” value ([4]; 5° C., Initial) was 99.2. For the same compound, the “Purity Initial” value ([4]; 5° C., Initial) was 99.87, the “Purity (%) Month 1” value ([4]; 5° C., Month 1) was 99.86% and the “Purity (%) Month 2” value ([4]; 5° C.) was 99.86%. For the same compound, the “Chiral purity (%) Month 3” value ([4]; 5° C.) was 99.1%, the “Purity (%) Month 3” value ([4]; 5° C.) was 99.85% and the “Chiral purity (%) Month 3” value ([4]; 25° C., 60% RH) was 99.2%. For the same compound, the “Purity (%) Month 3” value ([4]; 25° C., 60% RH) was 99.85%, the “Purity Initial” value ([4]; 40° C., 75% RH, Initial) was 99.87 and the “Purity (%) Month 2” value ([4]; 40° C., 75% RH) was 99.86%.
